Results from patent US8445509B2, “Fused heterocyclic derivatives and use thereof” (Takeda Pharmaceutical Company Limited, priority 2008, dated 2013).

Assays:
[1] = target: T1, VEGFR2 intracellular domain protein (Homo sapiens, UniProt P35968); assay: Vascular endothelial growth factor receptor 2 (VEGFR2) kinase inhibitory activity (AlphaScreen); format: biochemical
T1 construct: made in house; host or cells: SF-21 insect cells, recombinant baculovirus BAC-VEGFR2
Procedure: Human vascular endothelial growth factor receptor 2 (hereinafter to be referred to as VEGFR2) gene was cloned by PCR using cDNA Libraries Human Placenta (Clontech) as a template. […] The primer base sequence is shown below.
SF-21 cells were sown at 1×10^6 cells/mL to Sf-900II SFM medium (1 L, Invitrogen) containing 10% fetal bovine serum (trace), 50 mg/L Gentamicin (Invitrogen) and 0.1% Pluronic F-68 (Invitrogen), and shaking culture was performed using a 2 L volume Erlenmeyer flask at 27° C., 100 rpm. After culturing for 24 hrs, recombinant baculovirus BAC-VEGFR2 (13.4 mL) was added to the mixture, and the mixture was further cultured for 3 days. The culture medium was centrifuged at 2,000 rpm for 5 min to give virus-infected cells. The infected cells were washed with a phosphate buffered saline (Invitrogen), centrifuged under the same conditions, and the cells were preserved at −80° C. The cryopreserved cells were thawed in ice, suspended in buffer A (50 mM Tris buffer (30 mL, pH 7.4) containing 20% glycerol, 0.15 M NaCl) supplemented with Complete Protease Inhibitor (Boehringer), and ruptured 3 times with a Polytron homogenizer (Kinematica) at 20,000 rpm for 30 sec. The ruptured medium was clarified by centrifugation at 40,000 rpm for 30 min and filtered with a 0.45 μm filter. The filtrate was passed through a column packed with Anti-FLAG M2 Affinity Gel (4 mL, Sigma) at a flow rate of about 0.5 mL/min. The column was washed with buffer A, and eluted with buffer A containing 100 μg/mL of FLAG peptide. The eluate was concentrated with Vivaspin 20 (Vivascience) having a molecular weight cut off of 30K. The buffer of this concentrate was exchanged using NAP™ 25 column (Amersham Bioscience) equilibrated with buffer A. The fractions containing intracellular domain protein of VEGFR2 were collected, glycerol was added to the final concentration of 50% and cryopreserved at −80° C.
(§1) A test compound dissolved in dimethyl sulfoxide (DMSO) was diluted with a buffer (50 mM Tris-HCl (pH 7.5), 5 mM MgCl2, 5 mM MnCl2, 2 mM dithiothreitol, 0.01% Tween-20). To this compound solution (5 μL) was added a buffer (10 μL) containing 50 ng/mL of VEGFR2 intracellular domain protein and 250 ng/mL of biotin labeled polypeptide biotinyl-poly-Glu:Tyr (4:1) (CIS bio International). […] The reaction solution was allowed to stand at 25° C. for 16 hrs, and the wells were counted using a plate reader (Fusion™ (PerkinElmer)). The kinase inhibitory rate (%) of the test compound was calculated by the following formula: Inhibitory rate (%)=(1−(count of test compound−blank)÷(control−blank))×100
(§2) The count of the solution reacted without addition of the compound was used as a “control”, and the count of the solution without the compound and ATP was used as a “blank”.

[2] = target: T2, c-Met intracellular domain protein (Homo sapiens, UniProt P08581); assay: Hepatocyte growth factor receptor (c-Met) kinase inhibitory activity (AlphaScreen); format: biochemical
T2 construct: 2.5 ng/ml of c-Met intracellular domain protein (Millipore); purchased Millipore
Procedure: as §1, with “containing 2.5 ng/ml” for “containing 50 ng/mL”, “of c-Met” for “of VEGFR2”, “protein (Millipore)” for “protein”
as §2

[3] = system: Human gastric cancer cell line MKN-45; assay: Human gastric cancer cell line MKN-45 growth inhibitory test; format: cell-based; conditions: MKN-45, 72 h, culture for 3 days
Procedure: Human gastric cancer cell line MKN-45 (RIKEN BioResource Center) was cultured in RPMI1640 (Invitrogen) containing 10% bovine fetal serum in a gas incubator at 37° C., 5% CO2. MKN-45 cells were treated with trypsin/EDTA and recovered. The cells were suspended in RPMI1640 containing 0.3% bovine fetal serum, plated on a 96 well flat bottom plate at a cells density of 3000 cells/50 μL per well. After culturing overnight, various concentrations of test substance were dissolved in RPMI1640 containing 0.3% bovine fetal serum and added to each well by 50 μL. After culture for 3 days, a Cell counting kit-8 reagent (DOJINDO LABORATORIES) was added to each well by 10 μL, and reacted in an incubator at 37° C., 5% CO2 for 2-3 hr. After the reaction, the absorbance of each well at 450 nm was measured by a microtiter plate reader. The concentration of a test substance necessary for inhibiting the growth by 50% (IC50 value) was calculated using a cell proliferation rate with addition of the test substance at each concentration and according to the nonlinear regression analysis using GraphPad Prism [Sigmoidal dose response (variable slope)]. The cell proliferation rate (%) with addition of a test substance at each concentration was calculated by the following formula. As a positive control (100% growth), dimethyl sulfoxide was added instead of a test substance. As a negative control (0% growth), the compound of Reference Example 136 (WO2005/030140, Entry 104), which is a known c-Met inhibitor, was added in large excess (10 μM) instead of a test substance.

[4] = system: Human blood cell cancer cell line MV-4-11; assay: Human blood cell cancer cell line MV-4-11 growth inhibitory test; format: cell-based; conditions: MV4-11, 72 h, culture for 3 days
Procedure: Human blood cell cancer cell line MV-4-11 (ATCC) was cultured in IMDM (Invitrogen) containing 10% bovine fetal serum in an incubator at 37° C., 5% CO2. MV-4-11 cells were treated with trypsin/EDTA and recovered. The cells were suspended in IMDM containing 10% bovine fetal serum, plated on a 96 well flat bottom plate at a cells density of 30,000 cells/50 μL per well. After culturing overnight, various concentrations of test substance were dissolved in IMDM containing 10% bovine fetal serum and added to each well by 50 μL. After culture for 3 days, a Cell counting kit-8 reagent (DOJINDO LABORATORIES) was added to each well by 10 μL, and reacted in an incubator at 37° C., 5% CO2 for 2-3 hr. After the reaction, the absorbance of each well at 450 nm was measured by a microtiter plate reader. The concentration of a test substance necessary for inhibiting the growth by 50% (IC50 value) was calculated using a cell proliferation rate with addition of the test substance at each concentration and according to the nonlinear regression analysis using GraphPad Prism [Sigmoidal dose response (variable slope)].

[5] = system: Human umbilical vein-derived vascular endothelial cells (HUVEC); assay: Vascular endothelial cell proliferation inhibitory test (VEGF-stimulated HUVEC); format: cell-based; conditions: 120 h, 5 days of culture with VEGF
Procedure: Human umbilical vein-derived vascular endothelial cells (HUVEC purchased from KURABO […] LTD.) were cultured in an incubator at 37° C., 5% carbon dioxide in a vascular endothelial cell medium (Invitrogen) containing 3% bovine fetal serum and 2.5 ng/mL basic fibroblast growth factor. To be specific, HUVEC was suspended in a vascular endothelial cell medium containing the aforementioned 3% bovine fetal serum and plated on a 96 well flat bottom plate by 50 μL (3000 cells) each well. After culture overnight, various concentrations of the test substance and 120 ng/mL of vascular endothelial growth factor (VEGF) were dissolved in a vascular endothelial cell medium containing 3% bovine fetal serum and added to each well by 50 μL. After 5 days of culture, a Cell counting kit-8 reagent (DOJINDO LABORATORIES) was added to each well by 10 μL, and the mixture was reacted in an incubator at 37° C., 5% carbon dioxide for 2-3 hr. The absorbance at 450 nm was measured by a microtiter plate reader and the cell proliferation inhibitory activity was determined. Using the absorbance with addition of a test substance at each concentration and based on the nonlinear least-squares analysis using a logistic curve of SAS system NLIN procedure, the concentration of the test substance (IC50 value) necessary for showing 50% of the value obtained without addition of the test substance was calculated.

[6] = target: T3, FLT3 intracellular domain protein (Homo sapiens, UniProt P36888); assay: Fms Like Tyrosine Kinase 3 (FLT3) kinase inhibitory activity (AlphaScreen); format: biochemical
T3 construct: 7.5 ng/ml of FLT3 intracellular domain protein (Millipore); purchased Millipore
T3 sequence (P36888 564-993 limits assumed): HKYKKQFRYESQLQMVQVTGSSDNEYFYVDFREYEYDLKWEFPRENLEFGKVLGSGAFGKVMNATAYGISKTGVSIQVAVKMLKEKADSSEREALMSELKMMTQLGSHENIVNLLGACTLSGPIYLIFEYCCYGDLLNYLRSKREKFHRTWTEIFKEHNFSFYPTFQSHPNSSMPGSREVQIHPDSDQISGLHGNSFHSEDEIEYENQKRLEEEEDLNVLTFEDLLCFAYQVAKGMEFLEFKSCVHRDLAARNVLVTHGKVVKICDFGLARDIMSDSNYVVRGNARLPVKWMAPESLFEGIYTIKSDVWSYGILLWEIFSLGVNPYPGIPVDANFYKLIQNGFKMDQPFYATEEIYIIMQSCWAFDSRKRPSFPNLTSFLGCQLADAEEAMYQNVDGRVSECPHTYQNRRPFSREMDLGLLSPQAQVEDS
Procedure: A test compound dissolved in dimethyl sulfoxide (DMSO) was diluted with a buffer (50 mM Tris-HCl (pH 7.5), 5 mM MgCl2, 5 mM MnCl2, 2 mM dithiothreitol, 0.01% Tween-20). To this compound solution (5 μL) was added a buffer (10 μL) containing 7.5 ng/ml of FLT3 intracellular domain protein (Millipore) and 250 ng/mL of biotin labeled polypeptide biotinyl-poly-Glu:Tyr (4:1) (CIS bio International). At 5 min after mixing kinase enzyme and the compound and biotin labeled polypeptide, to the obtained mixture was added a buffer (10 μL) containing ATP (5 μM), the mixture was allowed to react at 25° C. for 10 min and the reaction was quenched with 25 μL of a stop solution (100 mM EDTA disodium salt, 62.5 mM HEPES buffer (pH 7.4), 250 mM NaCl, 0.1% bovine serum albumin, 10 μg/mL AlphaScreen assay streptavidin donor beads (Streptavidin Donor Beads: PerkinElmer), 10 μg/mL AlphaScreen assay anti-phosphotyrosine recognition antibody Y-100 binding acceptor beads (Anti-phosphotyrosine (P-Tyr-100) Acceptor beads: PerkinElmer)). The reaction solution was allowed to stand at 25° C. for 16 hrs, and the wells were counted using a plate reader (Envision™ (PerkinElmer)). The kinase inhibitory rate (%) of the test compound was calculated by the following formula: Inhibitory rate (%)=(1−(count of test compound−blank)÷(control−blank))×100
as §2

[7] = target: T4, Tie2 intracellular domain protein (Homo sapiens, UniProt Q02763); assay: TIE2 kinase inhibitory activity (AlphaScreen); format: biochemical
T4 construct: 50 ng/mL of Tie2 intracellular domain protein (Millipore); purchased Millipore
Procedure: A test compound dissolved in dimethyl sulfoxide (DMSO) was diluted with a buffer (50 mM Tris-HCl (pH 7.5), 5 mM MgCl2, 5 mM MnCl2, 2 mM dithiothreitol, 0.01% Tween-20). A buffer (10 μL) containing 50 ng/mL of Tie2 intracellular domain protein (Millipore) and 250 ng/ml, of biotin labeled polypeptide biotinyl-poly-Glu:Tyr (4:1) (CIS bio International) was added to the compound solution (5 μL). At 5 min from the mixing of the kinase enzyme, the compound and the biotin labeled polypeptide, a buffer (10 μL) containing 5 μM ATP was added, and the mixture was reacted at 25° C. for 10 min. The reaction was quenched by the addition of 25 μL of a stop solution (100 mM EDTA disodium salt, 62.5 mM HEPES buffer (pH 7.4), 250 mM NaCl, 0.1% bovine serum albumin, 10 μg/ml AlphaScreen assay streptavidin donor beads (Streptavidin Donor beads: PerkinElmer), 10 μg/ml, AlphaScreen assay anti-phosphotyrosine recognition antibody PT-66 binding acceptor beads (Anti-phosphotyrosine (PT-66) Acceptor beads: PerkinElmer)). The reaction solution was allowed to stand at 25° C. for 16 hrs, and the […] were counted using a plate reader (Fusion™ (PerkinElmer)). The kinase inhibitory rate (%) of the test compound was calculated by the following formula: Inhibitory rate (%)=(1−(count of test compound−blank)÷(control−blank))×100
as §2

[8] = 1 μM test compound, read-out: inhibitory rate (%) at 1 μM
[9] = 1 μM test substance, read-out: inhibitory rate (%) at 1 μM

T2 sequence (P08581 956-1390 limits assumed): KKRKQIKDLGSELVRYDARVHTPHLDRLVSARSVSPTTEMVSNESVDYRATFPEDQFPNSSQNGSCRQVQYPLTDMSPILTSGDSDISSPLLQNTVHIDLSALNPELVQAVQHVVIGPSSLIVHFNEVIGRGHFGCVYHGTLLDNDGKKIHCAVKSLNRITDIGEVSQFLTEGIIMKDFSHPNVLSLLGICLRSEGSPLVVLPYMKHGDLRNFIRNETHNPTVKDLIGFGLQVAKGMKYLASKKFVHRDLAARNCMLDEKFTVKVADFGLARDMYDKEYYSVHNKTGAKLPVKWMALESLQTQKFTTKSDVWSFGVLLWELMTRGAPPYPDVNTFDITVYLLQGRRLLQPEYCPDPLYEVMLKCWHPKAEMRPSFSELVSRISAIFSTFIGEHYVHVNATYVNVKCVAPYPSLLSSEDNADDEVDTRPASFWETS
T1 sequence (P35968 786-1356 limits assumed): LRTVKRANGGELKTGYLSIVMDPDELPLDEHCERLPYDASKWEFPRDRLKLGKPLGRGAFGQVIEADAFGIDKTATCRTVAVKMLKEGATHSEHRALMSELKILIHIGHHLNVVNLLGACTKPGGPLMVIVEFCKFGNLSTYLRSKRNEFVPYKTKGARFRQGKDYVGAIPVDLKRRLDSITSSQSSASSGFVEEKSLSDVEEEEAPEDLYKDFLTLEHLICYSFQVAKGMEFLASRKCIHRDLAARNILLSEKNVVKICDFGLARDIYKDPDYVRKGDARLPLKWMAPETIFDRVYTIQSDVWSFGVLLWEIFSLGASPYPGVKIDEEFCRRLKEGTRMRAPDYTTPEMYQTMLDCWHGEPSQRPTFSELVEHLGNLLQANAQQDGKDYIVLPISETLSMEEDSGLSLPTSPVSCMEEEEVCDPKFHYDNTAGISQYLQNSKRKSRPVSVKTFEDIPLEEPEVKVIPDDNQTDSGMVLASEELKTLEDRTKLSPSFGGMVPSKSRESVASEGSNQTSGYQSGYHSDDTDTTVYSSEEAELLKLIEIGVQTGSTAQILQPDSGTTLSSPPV
T4 sequence (Q02763 770-1124 limits assumed): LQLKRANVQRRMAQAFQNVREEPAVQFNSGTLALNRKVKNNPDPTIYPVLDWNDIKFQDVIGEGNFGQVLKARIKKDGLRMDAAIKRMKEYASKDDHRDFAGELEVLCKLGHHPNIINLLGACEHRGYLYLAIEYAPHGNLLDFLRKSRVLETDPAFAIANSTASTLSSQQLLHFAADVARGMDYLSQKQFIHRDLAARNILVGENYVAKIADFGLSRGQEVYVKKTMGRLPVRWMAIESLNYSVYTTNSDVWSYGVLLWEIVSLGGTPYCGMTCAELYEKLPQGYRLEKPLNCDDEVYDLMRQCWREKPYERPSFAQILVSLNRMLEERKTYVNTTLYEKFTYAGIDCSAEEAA

O=C(Nc1nc2ccc(Oc3ccc(NC(=O)C4(C(=O)Nc5ccccc5)CC4)cc3F)nc2s1)C1CC1 [Example 20, N-[4-({2-[(cyclopropylcarbonyl)amino][1,3]thiazolo[5,4-b]pyridin-5-yl}oxy)-3-fluorophenyl]-N′-phenylcyclopropane-1,1-dicarboxamide]
IC50 [1]: ≤ 1000 nM | inhibition at 1 µM [1, 8]: ≥ 70% | IC50 [2]: ≤ 1000 nM | inhibition at 1 µM [2, 8]: ≥ 80% | inhibition at 1 µM [3, 9]: ≥ 80% | IC50 ([3]; read-out: IC50 value): ≤ 1000 nM | inhibition at 1 µM [4, 9]: ≥ 90% | IC50 [4]: ≤ 1000 nM | inhibition at 1 µM [5, 9]: ≥ 40% | IC50 [5]: ≤ 2000 nM

Cc1ccc(C(=O)Nc2ccc(Oc3ccc4nc(NC(=O)C5CC5)cn4c3)c(F)c2)c(=O)n1-c1ccc(F)cc1 [Example 90, N-[4-({2-[(cyclopropylcarbonyl)amino]imidazo[1,2-a]pyridin-6-yl}oxy)-3-fluorophenyl]-1-(4-fluorophenyl)-6-methyl-2-oxo-1,2-dihydropyridine-3-carboxamide acetate]
IC50 [6]: ≤ 1000 nM | IC50 [7]: ≤ 1000 nM
